Legend:
human D2 receptor = human D2 receptor (Homo sapiens (Human), UniProt P14416); experiment: Radioligand binding ([3H]-spiperone) to cloned receptors expressed in HEK-293 EBNA cells; conditions: HEK293 EBNA cell membranes expressing human D2
Experimental: (§1) HEK293 EBNA cells were transiently transfected with expression plasmids encoding for the human D2 or D3 or for the human 5-HT2A receptor, respectively. The cells were harvested 48 h post-transfection, washed three times with cold PBS and stored at −80° C. prior to use. The pellet was suspended in cold 50 mM Tris-HCl buffer comprising 10 mM EDTA (pH 7.4) and was homogenized with a Polytron (Kinematica AG, Basel, Switzerland) for 20-30 sec at 12.000 rpm. After centrifugation at 48.000×g for 30 min at 4° C., the pellet was resuspended in cold 10 mM Tris-HCl buffer comprising 0.1 mM EDTA (pH 7.4), homogenized, and centrifuged as above. This pellet was further resuspended in a smaller volume of ice cold 10 mM Tris-HCl buffer comprising 0.1 mM EDTA (pH 7.4) and homogenized with a Polytron for 20-30 sec at 12.000 rpm. The protein content of this homogenate was determined with the Bio-Rad (Bradford) Protein Assay (Biorad Laboratories GmbH, München, Germany) according to the instructions of the manufacturer using gamma globulin as the standard. This homogenate was stored at −80° C. in aliquots and thawed immediately prior to use.
(§2) Aliquots of membrane preparations were thawed at RT, resupended in assay buffer (D2, D3: 50 mM Tris-HCl, 120 mM NaCl, 5 mM MgCl2, 1 mM EDTA, 5 mM KCl, 1.5 mM CaCl2, pH=7.4; 5-HT2A: 50 mM Tris-HCl, 10 mM MgCl2, 1 mM EGTA, pH=7.4), homogenized with a Polytron for 20-30 sec at 12.000 rpm and adjusted to a final concentration of approximately 7.5 μg protein/well (D2, D3) and 15 μg protein/well (5-HT2A), respectively.
(§3) The binding affinity (Ki) of the compounds was determined using radioligand binding. Membranes were incubated in a total volume of 200 μl with a fixed concentration of radioligand (final concentration approximately 0.7 nM [^3H]-spiperone for D2, 0.5 nM [^3H]-spiperone for D3, and 1.1 nM [^3H]-ketanserin for 5-HT2A) and ten concentrations of test compound in ranging between 10 μM-0.1 nM for 1 h at RT. At the end of the incubation, the reaction mixtures were filtered on to unifilter 96-well white microplates with bonded GF/C filters (Packard BioScience, Zürich, Switzerland; preincubated for 1 h in 0.1% polyethylenimine (PEI) in assay buffer) with a Filtermate 196 harvester (Packard BioScience) and washed 3 times with cold assay buffer. The nonspecific binding was determined with equally composed reaction mixtures in the presence of 10 μM unlabelled spiperone. Per well 45 μl of Microscint 40 (Perkin Elmer, Schwerzenbach, Switzerland) was added, plates for sealed, shaken for 20 min and counted for 3 min on a Topcount Microplate Scintillation Counter (Can berra Packard SA, Zürich, Switzerland) with quenching correction.
(§4) The CPM value for each duplicate of a concentration of competing compound was averaged (y1), then the % specific binding was calculated according to the equation (((y1−non-specific)/(total binding−non-specific))×100). Graphs were plotted with the % specific binding using XLfit, a curve fitting program that iteratively plots the data using Levenberg-Marquardt algorithm. The single site competition analysis equation used was y=A+((B−A)/(1+((x/C)D))), where y is the % specific binding, A is the minimum y, B is the maximum y, C is the IC50, x is the log 10 of the concentration of the competing compound and D is the slope of the curve (the Hill Coefficient). […] The affinity constant (Ki) was calculated using the Cheng-Prusoff equation Ki=(IC50/1+([L]/Kd), where [L] is the concentration of radioligand and Kd is the dissociation constant of the radioligand at the receptor as determined by the saturation isotherm.

human D3 receptor = human D3 receptor (Homo sapiens (Human), UniProt P35462); experiment: as above; conditions: HEK293 EBNA cell membranes expressing human D3
Sequence of human D3 receptor (P35462 whole entry): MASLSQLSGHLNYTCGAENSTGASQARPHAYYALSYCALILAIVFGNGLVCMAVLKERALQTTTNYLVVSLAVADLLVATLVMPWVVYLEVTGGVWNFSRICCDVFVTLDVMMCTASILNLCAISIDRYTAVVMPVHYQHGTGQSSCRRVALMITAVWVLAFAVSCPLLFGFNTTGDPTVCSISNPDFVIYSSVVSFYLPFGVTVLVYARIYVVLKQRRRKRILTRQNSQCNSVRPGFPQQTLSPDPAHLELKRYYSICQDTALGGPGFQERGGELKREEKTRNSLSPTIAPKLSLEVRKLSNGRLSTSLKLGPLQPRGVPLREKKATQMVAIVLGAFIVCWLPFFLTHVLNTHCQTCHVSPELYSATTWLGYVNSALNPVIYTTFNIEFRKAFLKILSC
Experimental: as §1, §2, §3, §4

human 5-HT2A receptor = human 5-HT2A receptor (Homo sapiens (Human), UniProt P28223); experiment: Radioligand binding ([3H]-ketanserin) to cloned receptors expressed in HEK-293 EBNA cells; conditions: HEK293 EBNA cell membranes expressing human 5-HT2A
Sequence of human 5-HT2A receptor (P28223 whole entry): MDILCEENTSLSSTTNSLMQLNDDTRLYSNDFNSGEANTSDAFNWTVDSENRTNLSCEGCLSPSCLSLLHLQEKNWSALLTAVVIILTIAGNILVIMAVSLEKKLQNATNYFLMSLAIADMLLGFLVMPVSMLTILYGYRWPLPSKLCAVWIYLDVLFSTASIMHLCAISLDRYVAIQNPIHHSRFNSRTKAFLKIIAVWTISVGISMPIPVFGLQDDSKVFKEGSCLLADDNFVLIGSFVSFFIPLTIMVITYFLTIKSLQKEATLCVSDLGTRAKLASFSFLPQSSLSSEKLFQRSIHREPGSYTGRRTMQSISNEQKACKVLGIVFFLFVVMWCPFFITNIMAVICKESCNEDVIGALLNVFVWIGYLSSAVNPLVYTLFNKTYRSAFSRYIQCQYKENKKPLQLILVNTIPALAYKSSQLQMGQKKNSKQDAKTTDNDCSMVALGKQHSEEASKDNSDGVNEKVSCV
Experimental: as §1, §2, §3, §4

Sequence of human D2 receptor (P14416 whole entry): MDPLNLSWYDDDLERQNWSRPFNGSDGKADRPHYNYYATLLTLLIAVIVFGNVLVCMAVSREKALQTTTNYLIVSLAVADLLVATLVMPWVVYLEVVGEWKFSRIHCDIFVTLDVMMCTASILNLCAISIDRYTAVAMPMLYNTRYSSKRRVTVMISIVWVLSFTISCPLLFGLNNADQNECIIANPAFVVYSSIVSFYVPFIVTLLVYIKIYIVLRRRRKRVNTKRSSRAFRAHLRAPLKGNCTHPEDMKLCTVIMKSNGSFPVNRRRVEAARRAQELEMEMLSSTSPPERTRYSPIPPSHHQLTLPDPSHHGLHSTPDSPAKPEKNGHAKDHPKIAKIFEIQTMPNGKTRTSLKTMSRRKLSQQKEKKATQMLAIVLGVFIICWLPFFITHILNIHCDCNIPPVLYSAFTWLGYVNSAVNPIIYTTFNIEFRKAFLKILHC

Compound | Ki (human D2 receptor) [nM] | Ki (human D3 receptor) [nM] | melting point [°C] | Ki (human 5-HT2A receptor) [nM]
O=C(CC1CCOCC1)N[C@H]1CC[C@H](CCN2CCC(c3cccc4c3CCO4)CC2)CC1 [Example 8, trans-N-(4-{2-[4-(2,3-Dihydro-benzofuran-4-yl)-piperidin-1-yl]-ethyl}-cyclohexyl)-2-(tetrahydro-pyran-4-yl)-acetamide] | 650 | 10.4 | 191 | 38.6
CCC(=O)N[C@H]1CC[C@H](CCN2CCC(c3cccc4occc34)CC2)CC1 [Example 9, trans-N-{4-[2-(4-Benzofuran-4-yl-piperidin-1-yl)-ethyl]-cyclohexyl}-propionamide] | 91.9 | 2.2 | 170 | 5.6
COCC(=O)N[C@H]1CC[C@H](CCN2CCC(c3cccc4occc34)CC2)CC1 [Example 10, trans-N-{4-[2-(4-Benzofuran-4-yl-piperidin-1-yl)-ethyl]-cyclohexyl}-2-methoxy-acetamide] | 256 | 10.5 | 124 | 4.2
CS(=O)(=O)CC(=O)N[C@H]1CC[C@H](CCN2CCC(c3cccc4occc34)CC2)CC1 [Example 11, trans-N-{4-[2-(4-Benzofuran-4-yl-piperidin-1-yl)-ethyl]-cyclohexyl}-2-methanesulfonyl-acetamide] | 154 | 2.3 | 201 | 5.3
CCC(=O)N[C@H]1CC[C@H](CCN2CCC(c3cccc4c3CCO4)CC2)CC1 [Example 13, trans-N-(4-{2-[4-(2,3-Dihydro-benzofuran-4-yl)-piperidin-1-yl]-ethyl}-cyclohexyl)-propionamide] | 346 | 4.6 | 192 | 34.3
COCC(=O)N[C@H]1CC[C@H](CCN2CCC(c3cccc4c3CCO4)CC2)CC1 [Example 14, trans-N-(4-{2-[4-(2,3-Dihydro-benzofuran-4-yl)-piperidin-1-yl]-ethyl}-cyclohexyl)-2-methoxy-acetamide] | 671 | 22.7 | 156 | 27.7
CS(=O)(=O)CC(=O)N[C@H]1CC[C@H](CCN2CCC(c3cccc4c3CCO4)CC2)CC1 [Example 15, trans-N-(4-{2-[4-(2,3-Dihydro-benzofuran-4-yl)-piperidin-1-yl]-ethyl}-cyclohexyl)-2-methanesulfonyl-acetamide] | 419 | 4.9 | 211 | 35.9
O=C(N[C@H]1CC[C@H](CCN2CCC(c3cccc4c3CCO4)CC2)CC1)c1ccccc1 [Example 17, trans-N-(4-{2-[4-(2,3-Dihydro-benzofuran-4-yl)-piperidin-1-yl]-ethyl}-cyclohexyl)-benzamide] | 319 | 4.2 | 220 | 11.4
O=C(CC(F)(F)F)N[C@H]1CC[C@H](CCN2CCC(c3cccc4c3CCO4)CC2)CC1 [Example 18, trans-N-(4-{2-[4-(2,3-Dihydro-benzofuran-4-yl)-piperidin-1-yl]ethyl}-cyclohexyl)-3,3,3-trifluoro-propionamide] | 345 | 4.4 | 197 | 34.2
Cc1cc(CC(=O)N[C@H]2CC[C@H](CCN3CCC(c4cccc5c4CCO5)CC3)CC2)on1 [Example 19, trans-N-(4-{2-[4-(2,3-Dihydro-benzofuran-4-yl)-piperidin-1-yl]-ethyl}-cyclohexyl)-2-(3-methyl-isoxazol-5-yl)-acetamide] | 540 | 2 | 188 | 32.9
O=C(CO)N[C@H]1CC[C@H](CCN2CCC(c3cccc4c3CCO4)CC2)CC1 [Example 20, trans-N-(4-{2-[4-(2,3-Dihydro-benzofuran-4-yl)-piperidin-1-yl]-ethyl}-cyclohexyl)-2-hydroxy-acetamide] | 571 | 10 | 154.5 | 25.3
CC(C)C(=O)N[C@H]1CC[C@H](CCN2CCC(c3cccc4c3CCO4)CC2)CC1 [Example 23, trans-N-(4-{2-[4-(2,3-Dihydro-benzofuran-4-yl)-piperidin-1-yl]-ethyl}-cyclohexyl)-isobutyramide] | 285 | 8 | 212 | 19.9
CC(C)CC(=O)N[C@H]1CC[C@H](CCN2CCC(c3cccc4c3CCO4)CC2)CC1 [Example 24, trans-N-(4-{2-[4-(2,3-Dihydro-benzofuran-4-yl)-piperidin-1-yl]-ethyl}-cyclohexyl)-3-methyl-butyramide] | 213 | 5.2 | 197 | 31.1
O=C(N[C@H]1CC[C@H](CCN2CCC(c3cccc4c3CCO4)CC2)CC1)C1CCC1 [Example 26, Cyclobutanecarboxylic acid trans-(4-{2-[4-(2,3-dihydro-benzofuran-4-yl)-piperidin-1-yl]-ethyl}-cyclohexyl)-amide] | 145 | 8.4 | 197 | 20.4
O=C(CCO)N[C@H]1CC[C@H](CCN2CCC(c3cccc4c3CCO4)CC2)CC1 [Example 27, trans-N-(4-{2-[4-(2,3-Dihydro-benzofuran-4-yl)-piperidin-1-yl]-ethyl}-cyclohexyl)-3-hydroxy-propionamide] | 344 | 6.5 | 158 | 61.8
O=C(N[C@H]1CC[C@H](CCN2CCC(c3cccc4c3CCO4)CC2)CC1)C1(O)CC1 [Example 28, 1-Hydroxy-cyclopropanecarboxylic acid trans-(4-{2-[4-(2,3-dihydro-benzofuran-4-yl)-piperidin-1-yl]-ethyl}-cyclohexyl)-amide] | 299 | 8.4 | 164 | 9.3
O=C(N[C@H]1CC[C@H](CCN2CCC(c3cccc4c3CCO4)CC2)CC1)C1CC1 [Example 29, Cyclopropanecarboxylic acid trans-(4-{2-[4-(2,3-dihydro-benzofuran-4-yl)-piperidin-1-yl]-ethyl}-cyclohexyl)-amide] | 151 | 8.9 | 208 | 23.6
O=C(CC1CC1)N[C@H]1CC[C@H](CCN2CCC(c3cccc4c3CCO4)CC2)CC1 [Example 30, trans-2-Cyclopropyl-N-(4-{2-[4-(2,3-dihydro-benzofuran-4-yl)-piperidin-1-yl]-ethyl}-cyclohexyl)-acetamide] | 268 | 2.9 | 189 | 28.7
O=C(N[C@H]1CC[C@H](CCN2CCC(c3cccc4c3CCO4)CC2)CC1)c1ccc(N2CCOCC2)cc1 [Example 33, trans-N-(4-{2-[4-(2,3-Dihydro-benzofuran-4-yl)-piperidin-1-yl]-ethyl}-cyclohexyl)-4-morpholin-4-yl-benzamide] | 128 | 10.5 | 247 | 17.6
O=C(N[C@H]1CC[C@H](CCN2CCC(c3cccc4c3CCO4)CC2)CC1)c1ccc(Cl)cc1 [Example 34, trans-4-Chloro-N-(4-{2-[4-(2,3-dihydro-benzofuran-4-yl)-piperidin-1-yl]-ethyl}-cyclohexyl)-benzamide] | 71.9 | 4.9 | 224 | 18.1

Reference: US8877778B2, “Benzofurane compounds” (Hoffmann-La Roche Inc., priority 2010, dated 2014)
